Results on three compounds are retold here after BindingDB's records for doi:10.1016/s0960-894x(98)00617-9 (Scripps Research Institute, 1999).

Assay [1] is described as follows: Compound was tested for inhibitory activity against alpha-Fucosidase obtained from Bovine epididymis.
The nature of assay [2]: Compound was tested for inhibitory activity against alpha-Fucosidase obtained from Bovine kidney.
The nature of assay [3]: Compound was tested for inhibitory activity against alpha-1,2-Fucosidase obtained from Arthrobacter oxidans F1.

The IC50 is the point on the concentration scale where inhibition reaches its midpoint. Read a low IC50 as inhibition by little substance.

As for `CC1NC(CO)(CNC(=O)CN)C(O)C(O)C1O` (centres undefined) [2-Amino-N-(3,4,5-trihydroxy-2-hydroxymethyl-6-methyl-piperidin-2-ylmethyl)-acetamide], the results for the IC50 in assay [1], in assay [2] and in assay [3] were 170 nM, 50 nM and 116 nM, respectively.

As to `CC1NC(CN)(CO)C(O)C(O)C1O` (centres undefined) [2-Aminomethyl-2-hydroxymethyl-6-methyl-piperidine-3,4,5-triol], the IC50 came to 160 nM in assay [1], 206 nM in assay [2] and 80 nM in assay [3].

As to `CC1NC(C#N)(CO)C(O)C(O)C1O` (centres undefined) [3,4,5-Trihydroxy-2-hydroxymethyl-6-methyl-piperidine-2-carbonitrile], the half-maximal inhibitory concentration (IC50) in assay [1] stood at 110 nM; in assay [2], 75 nM; in assay [3] it was 122 nM.
